SMILES strings stand for the structures. Activity calls are given as the source filed them.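 How the source made its calls: active means compounds whose IC50 for blocking RGS4-driven GTP breakdown by the G-protein falls below a set limit; inactive means IC50 above a set limit.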 Bounds are passed on as bounds.

The target of the assay is Regulator of G-protein signaling 4 (Rattus norvegicus) (UniProt P49799). The assay can be described thus: RGS4-stimulated Galphai1 GTP hydrolysis blockers – biochemical, rat RGS4, steady-state, receptor-independent, malachite green, confirmation (AID 588552). As to conditions: RGS4-stimulated Galphai1 GTPase, malachite green phosphate absorbance.
Regulator of G-protein signaling 4 (Rattus norvegicus), sequence (P49799 whole entry, looked up): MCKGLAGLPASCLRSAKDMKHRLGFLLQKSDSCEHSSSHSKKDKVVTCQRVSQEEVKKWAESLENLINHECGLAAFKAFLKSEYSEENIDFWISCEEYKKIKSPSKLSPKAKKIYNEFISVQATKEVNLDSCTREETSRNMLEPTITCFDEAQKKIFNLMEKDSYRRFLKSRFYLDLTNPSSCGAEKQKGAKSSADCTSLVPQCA
Consider `Cc1cccc(N2C(=O)/C(=C/c3ccc(C(=O)O)cc3)c3ccccc3C2=O)c1`, for which the IC50 is 31.8 µM. Turning to `Cc1c(NC(=O)c2coc(=O)c(Br)c2)c(=O)n(-c2ccccc2)n1C`, the IC50 was > 110 µM (inactive). With `Cc1ccc(CNC(=O)c2cn(C3CCCCC3)c(=O)c3c2c2ccccc2n3C)o1` the figure was > 110 µM (inactive).

For the compound `O=C(N/N=C/c1cc([N+](=O)[O-])ccc1O)NC12CC3CC(CC(C3)C1)C2`, the IC50 is > 110 µM (inactive). `CCOCCCNC(=O)/C(C#N)=C\c1ccc(Cl)c([N+](=O)[O-])c1`: the IC50 was > 110 µM (inactive). As for `COc1ccc(OC)c(N2C(=O)NC(=O)/C(=C/c3ccc([N+](=O)[O-])s3)C2=O)c1`, the IC50 is 18 µM. For the compound `N[C@@H](Cc1cc(Br)c(O)c(Br)c1)C(=O)O`, the IC50 was > 110 µM (inactive).

As for `O=[N+]([O-])c1ccc(O)c(/C=N/NC(=S)Nc2ccc(Cl)cc2Cl)c1`, the IC50 was > 110 µM (inactive).

On to `COC(=O)CSc1[nH]c2cc(C)ccc2c1[N+](=O)[O-]`, for which the IC50 is > 110 µM (inactive). For the compound `CCOC(=O)C1=C(O)/C(=C\c2cccc(OC)c2)N=C1C`, the IC50 is > 110 µM (inactive). For the compound `CCOCCCNC(=O)/C(C#N)=C\c1ccc([N+](=O)[O-])o1`, the IC50 was 10.7 µM. For `Cc1ccccc1OCc1nnc(SCC(=O)Nc2ccc3c(c2)oc2ccccc23)n1C`, the IC50 was > 110 µM (inactive).

Consider `NC(=O)N/N=C/c1c(Sc2nnnn2-c2ccccc2)nc2ccccn2c1=O`, for which the IC50 was 55.5 µM.

In the case of `O=C1N=c2ccccc2=C1c1c(O)n(-c2cccc(F)c2)[nH]c1=O`, the IC50 was 55.8 µM. Take `O=C(CCNc1ccc(F)cc1)c1ccco1`: the IC50 is > 110 µM (inactive). For the compound `O=C1/C(=C\c2ccc(Cl)cc2Cl)N2CCC1CC2`, the IC50 was > 110 µM (inactive).

`COc1ccc2cc(C3C(C#N)=C(N)OC(C)=C3C(C)=O)c(Cl)nc2c1` (stereo not drawn): the IC50 is > 110 µM (inactive). For `CCCN1CCc2cc(O)cc3c2[C@H]1Cc1ccc(O)c(O)c1-3`, the IC50 is 11 µM. With `O=C1NC(=S)N(c2ccccc2F)C(=O)/C1=C\c1cccs1`, the IC50 was 35.6 µM. Take `CN1C/C(=C/c2ccncc2)C(=O)/C(=C/c2ccncc2)C1`: the IC50 was 37.1 µM. On to `CN(C)c1ccc(C(C[N+](=O)[O-])c2c(N)n(C)c(=O)n(C)c2=O)c(F)c1C#N` (stereo not drawn), for which the IC50 is > 110 µM (inactive). The value for `Oc1c(Cl)cc(Cl)c2c1NCCC2` was 37.8 µM; that for `O=C(O)c1ccc(/C=C/C(=O)c2ccc3c(c2)OCCCO3)cc1` was 34.7 µM. On to `COc1cccc(/C=C/C(=O)c2c(O)cc(C)oc2=O)c1O`, for which the IC50 is > 110 µM (inactive). Turning to `CC(C)OP(=O)(OC(C)C)/C(C=O)=N\Nc1ccc([N+](=O)[O-])cc1`, the IC50 was > 110 µM (inactive). With `O=C1C=C(NC2=CC3OC(c4ccccc4)OCC3OC2=O)CCC1` (stereo not drawn) the figure was 34 µM; with `Cn1c(OCc2ccco2)nc2c1c(=O)n(Cc1ccc(Cl)c(Cl)c1)c(=O)n2C`, > 110 µM (inactive); with `Cc1cc(-c2n[nH]c(=S)n2/N=C/C(Br)=C/c2ccccc2)n[nH]1`, 4 µM. Take `CC1=NN(c2ccc(C(=O)O)cc2)C(=O)/C1=C\c1ccc(OC(=O)c2cccs2)cc1`: the IC50 was 11.8 µM. As for `O=C(O)c1ccc2c(c1)C(=O)N(c1cccc(C(=O)/C=C/c3ccccc3)c1)C2=O`, the 50% inhibitory concentration (IC50) is 23.2 µM. Regarding `Cc1nc2c(=O)n(C)c(=O)n(C)c2nc1Cl`, the IC50 is > 110 µM (inactive).

For the compound `O=C1/C(=C/c2ccncc2)CCC/C1=C\c1ccncc1`, the IC50 is 9.9 µM. In the case of `O=C(O)c1ccc(/C=C2\COc3ccccc3C2=O)cc1`, the IC50 was 5.1 µM. The value for `CN(C)c1oc(-c2ccccc2[N+](=O)[O-])nc1C#N` was 18.6 µM; that for `CN1C(=O)/C(=C\c2ccc(Br)s2)C(=O)NC1=S` was 14.8 µM; that for `Cc1ccc(C(C2C(=O)CC(C)(C)CC2=O)C2C(=O)CC(C)(C)CC2=O)s1` was 91.4 µM.

On to `Cc1cc2nc(CS)[nH]c2cc1C`, for which the IC50 was > 110 µM (inactive).

As for `COC(=O)CSc1[nH]c2ccccc2c1[N+](=O)[O-]`, the IC50 is 55 µM. For the compound `N#C/C(=C/c1ccc(Cl)c([N+](=O)[O-])c1)c1ccccn1`, the IC50 is > 110 µM (inactive). With `COc1cc2c(cc1O)C(SC)=NC(C)(C)C2`, the IC50 is 31.8 µM.

As for `CN1C(=O)S/C(=C\c2ccccc2OCc2ccc(C(=O)O)cc2)C1=O`, the IC50 is 76.7 µM. The value for `CC(C)(C)c1ccc(Cn2nnc3c(=O)[nH]c(C4CCN(C(=O)Cc5cccs5)CC4)nc32)cc1` was > 110 µM (inactive). As to `Cc1ccc(/C=C/C(=O)N2CC(C)CC(C)C2)o1` (stereo not drawn), the IC50 was 16.7 µM. Turning to `O=C(/C=C/c1ccncc1)c1ccc2c(c1)OCCO2`, the 50% inhibitory concentration (IC50) is 31.1 µM.

As to `Cc1csc(NC(=O)COCC(=O)O)c1-c1nc2ccccc2s1`, the IC50 is > 110 µM (inactive). Regarding `CN(C)C(=O)COc1ccc(C(=O)/C=C/c2cccnc2)cc1`, the IC50 is 59.4 µM. Consider `Cc1ccc(C(C2=C(O)CC(C)(C)CC2=O)C2C(=O)CC(C)(C)CC2=O)o1` (stereo not drawn), for which the IC50 was > 110 µM (inactive). The value for `O=C1/C(=C\c2ccc(Cl)c(Cl)c2)N2CCC1CC2` was > 110 µM (inactive); that for `CCOC(=O)/C=C/C(=O)OCC(=O)N1CCN(C(=O)c2ccco2)CC1` was > 110 µM (inactive). For `CC1=NOC(=O)/C1=C/c1ccc(O)cc1`, the IC50 is > 110 µM (inactive).

As to `COc1ccc(NC(=O)/C(C#N)=C\c2ccc(Sc3nncn3C)c([N+](=O)[O-])c2)cc1`, the IC50 was > 110 µM (inactive). With `CN1CCc2cc(O)cc3c2[C@H]1Cc1ccc(O)c(O)c1-3` the figure was 9.7 µM; with `O=C/C=C/c1c(-c2ccccc2)cc2oc3ccccc3cc1-2`, > 110 µM (inactive); with `COc1ccc(C(C[N+](=O)[O-])c2c(-c3ccccc3)cc3ccccn23)cc1OC` (stereo not drawn), > 110 µM (inactive).

For `Cc1ccc(/C=C2\C(=O)NC(=S)N(c3ccc(F)cc3)C2=O)s1`, the IC50 was 11 µM.

In the case of `O=C(/C=C/c1ccc([N+](=O)[O-])cc1)c1ccco1`, the IC50 is > 110 µM (inactive). In the case of `COc1ccc(NC(=O)/C(Cl)=C(/Cl)S(=O)Cc2ccccc2)cn1` (stereo not drawn), the IC50 is 1 µM.

As for `COc1ccc(-c2csc(NC3OC(=O)c4c3ccc(OC)c4OC)n2)cc1OC` (stereo not drawn), the IC50 was > 110 µM (inactive).

The term IC50 denotes the concentration needed to halve the response being measured.

For the origin of these results see PubChem BioAssay AID588552 (Johns Hopkins Ion Channel Center, 2011).
